Some test systems named below: HOP-62 NSCLC; TK-10 renal; UACC-62 melanoma; SK-OV-3 ovarian; HT29 colon; SN12C renal; A498 renal; PC-3 prostate; OVCAR-4 ovarian; RXF 393 renal.
Holding throughout (assay): NCI tumour cell line growth inhibition, 48 h

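How tested: cells in 96-well plates exposed to compound for 48 hours at five concentrations. The concentration for 50% growth inhibition is given as GI50. The concentration for full growth arrest is given as TGI.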

The record followed here is PubChem BioAssay (NCI).

As for `Cc1cc2c(cc1Cl)SC(N(c1ccccc1Cl)S(=O)(=O)c1ccc(Br)s1)=NS2(=O)=O`, the GI50 with HOP-62 NSCLC was 37.5 µM; in the assay on TK-10 renal, 21.9 µM; in the assay with UACC-62 melanoma, 20.3 µM; with SK-OV-3 ovarian, 24.8 µM; with HT29 colon, 19.9 µM; in the assay with SN12C renal, 19.5 µM. For the same compound, the GI50 in the assay on A498 renal was 11.3 µM; in the assay with PC-3 prostate, 12.5 µM; in the assay with OVCAR-4 ovarian, 18.1 µM. Further, the TGI in the assay with HOP-62 NSCLC was more than 100 µM; with TK-10 renal, 66.4 µM; with UACC-62 melanoma, 68.4 µM; in the assay on SK-OV-3 ovarian, more than 100 µM; in the assay with HT29 colon it was 41.6 µM; with SN12C renal, 48.7 µM. The TGI in the assay with A498 renal was 42 µM; in the assay with PC-3 prostate it was 29.7 µM; with OVCAR-4 ovarian, 76.8 µM.
`N#CCCN(CCC#N)c1ccc(/C=C(/NC(=O)c2cc([N+](=O)[O-])ccc2Cl)C(=O)N=[N+]=[N-])cc1`: the TGI in the assay with HOP-62 NSCLC, in the assay on TK-10 renal, with UACC-62 melanoma, in the assay with SK-OV-3 ovarian, in the assay with HT29 colon and in the assay on SN12C renal was more than 100 µM throughout. The TGI in the assay with A498 renal, in the assay with OVCAR-4 ovarian and in the assay on RXF 393 renal was more than 100 µM in each case.
Turning to `O=C1Cc2c(-c3ccccc3)cc(-c3ccccc3)nc2-c2ccccc2N1`, the TGI was 7.73 µM with HOP-62 NSCLC; 5.68 µM with TK-10 renal; 25.7 µM in the assay with UACC-62 melanoma; 18.9 µM in the assay with SK-OV-3 ovarian; 28 µM in the assay with HT29 colon; 30.8 µM in the assay on SN12C renal. Moreover, the results for the TGI in the assay with A498 renal, in the assay on PC-3 prostate and in the assay with RXF 393 renal were 59.2 µM, 42.9 µM and more than 100 µM, respectively. In addition, the GI50 in the assay with TK-10 renal was 2.48 µM.
As to `C[C@@H](Nc1nc(N[C@H](C)C(F)(F)F)nc(-c2cccc(Cl)n2)n1)C(F)(F)F`, the GI50 in the assay on HOP-62 NSCLC is 27.5 µM; with TK-10 renal it was 39.9 µM; in the assay on SK-OV-3 ovarian it was 37.6 µM; in the assay with HT29 colon it was more than 100 µM; in the assay with SN12C renal, 46.6 µM; with A498 renal, 29.9 µM. The values for the GI50 in the assay on PC-3 prostate, in the assay on OVCAR-4 ovarian and in the assay with RXF 393 renal were 45.4 µM, 23.3 µM and 23.2 µM, respectively. Moreover, the TGI is more than 100 µM in the assay with HOP-62 NSCLC; more than 100 µM in the assay on TK-10 renal; more than 100 µM in the assay on SK-OV-3 ovarian; more than 100 µM with HT29 colon; more than 100 µM with SN12C renal; 99.7 µM in the assay on A498 renal. The TGI in the assay with PC-3 prostate was more than 100 µM; with OVCAR-4 ovarian, 96.9 µM; in the assay with RXF 393 renal, 94.7 µM.
Consider `CCCCCC/C=C/C#CCCCCCCCC(=O)O`, for which the TGI in the assay on TK-10 renal, in the assay on SK-OV-3 ovarian, with HT29 colon, with SN12C renal, in the assay with A498 renal and in the assay with PC-3 prostate was more than 100 µM throughout. In the assay on OVCAR-4 ovarian, the TGI was more than 100 µM.
As to `OCC1NC(COC2OC(CO)C(O)C(O)C2O)C(O)C(O)C1O` (stereo not given), the TGI with TK-10 renal, in the assay with UACC-62 melanoma, with HT29 colon, in the assay on SN12C renal, in the assay with A498 renal and with PC-3 prostate was more than 100 µM in each case. Further, the TGI in the assay on OVCAR-4 ovarian and with RXF 393 renal was more than 100 µM each time.
For the compound `CC(Oc1cc2oc(=O)cc(-c3ccccc3)c2cc1Cl)C(=O)O` (stereo not given), the TGI in the assay on HOP-62 NSCLC, in the assay with TK-10 renal, in the assay on UACC-62 melanoma, in the assay with SK-OV-3 ovarian, in the assay with HT29 colon and in the assay on SN12C renal was more than 100 µM throughout. In addition, the TGI with A498 renal, in the assay on OVCAR-4 ovarian and with RXF 393 renal was more than 100 µM each time.
Take `C[C@@H](O)[C@@H](C)Oc1nc(Nc2ccc(S(=N)(=O)C3CC3)cc2)ncc1C(F)(F)F` (stereo not given in full): the GI50 in the assay with HOP-62 NSCLC is 0.0283 µM; in the assay on TK-10 renal it was 0.0377 µM; in the assay on UACC-62 melanoma, 0.0249 µM; in the assay on SK-OV-3 ovarian, 0.0891 µM; in the assay with HT29 colon, 0.033 µM; in the assay with SN12C renal it was 0.0342 µM. The GI50 in the assay with A498 renal is 0.021 µM; with PC-3 prostate, 0.0401 µM; with OVCAR-4 ovarian, 0.0442 µM. Further, the TGI is 16.4 µM with HOP-62 NSCLC; more than 45.9 µM in the assay on TK-10 renal; 0.0931 µM in the assay on UACC-62 melanoma; more than 100 µM in the assay with SK-OV-3 ovarian; more than 100 µM with SN12C renal; 0.0461 µM in the assay with A498 renal. The TGI with PC-3 prostate turned out to be 0.443 µM; in the assay on OVCAR-4 ovarian, 26.9 µM.
`CCOC(=O)/C(=C/CC/C(C)=C/CC/C(C)=C/CCc1ccoc1)CC(=O)N1CCCCC1`: the GI50 in the assay on HOP-62 NSCLC is 4.4 µM; with TK-10 renal, 5.66 µM; with UACC-62 melanoma it was 2.8 µM; in the assay on SK-OV-3 ovarian, 8.27 µM; in the assay with SN12C renal, 3.79 µM; with A498 renal, 1.27 µM. Besides, the GI50 in the assay on PC-3 prostate is 3.1 µM; in the assay on RXF 393 renal, 2.45 µM. The TGI in the assay on HOP-62 NSCLC amounted to 19.8 µM; in the assay with TK-10 renal, 75.5 µM; with UACC-62 melanoma, 12.7 µM; with SK-OV-3 ovarian it was 36.1 µM; in the assay on SN12C renal, 14.8 µM; in the assay on A498 renal it was 3.08 µM. Further, the figures for the TGI in the assay with PC-3 prostate and with RXF 393 renal were 17.9 µM and 9.62 µM, respectively.
Regarding `O=C(CCC(=O)Nc1ccccc1C(F)(F)F)N/N=C1\C(=N\NC(=O)CCC(=O)Nc2ccccc2C(F)(F)F)C(c2ccc3c(c2)OCO3)Oc2ccccc21` (stereo not given), the TGI in the assay on HOP-62 NSCLC was 56.3 µM; in the assay on TK-10 renal it was more than 100 µM; with UACC-62 melanoma it was more than 100 µM; with SK-OV-3 ovarian, more than 82.5 µM; with HT29 colon it was more than 100 µM; with SN12C renal it was more than 100 µM. The TGI was more than 100 µM with A498 renal, more than 85.4 µM in the assay on OVCAR-4 ovarian and more than 71.7 µM with RXF 393 renal.
As to `Oc1ccc2ccccc2c1CCc1c(O)ccc2ccccc12`, the TGI turned out to be 28.2 µM in the assay with HOP-62 NSCLC; 32.5 µM in the assay on TK-10 renal; 21.2 µM with UACC-62 melanoma; 29.4 µM in the assay on SK-OV-3 ovarian; 18.6 µM with HT29 colon; 23.3 µM with SN12C renal. Moreover, the figures for the TGI in the assay on A498 renal, in the assay on PC-3 prostate and in the assay with RXF 393 renal were 38.2 µM, 26.9 µM and 27.5 µM, respectively.
